The results in this text go back to patent US5006522A, “Condensed diazepinones, processes for preparing them and pharmaceutical compositions containing these compounds” (Karl Thomae GmbH, priority 1988, dated 1991).

pIC50: −log10 of the molar value.

In data set [1] the target is T1, muscarinic receptors (heart) (Rattus norvegicus, UniProt P10980).
T1 construct: The whole heart was cut up with scissors; All the organs were then homogenised in a Potter apparatus; from tissue; host or cells: homogenate of rat whole heart
T1 sequence (P10980 1-466): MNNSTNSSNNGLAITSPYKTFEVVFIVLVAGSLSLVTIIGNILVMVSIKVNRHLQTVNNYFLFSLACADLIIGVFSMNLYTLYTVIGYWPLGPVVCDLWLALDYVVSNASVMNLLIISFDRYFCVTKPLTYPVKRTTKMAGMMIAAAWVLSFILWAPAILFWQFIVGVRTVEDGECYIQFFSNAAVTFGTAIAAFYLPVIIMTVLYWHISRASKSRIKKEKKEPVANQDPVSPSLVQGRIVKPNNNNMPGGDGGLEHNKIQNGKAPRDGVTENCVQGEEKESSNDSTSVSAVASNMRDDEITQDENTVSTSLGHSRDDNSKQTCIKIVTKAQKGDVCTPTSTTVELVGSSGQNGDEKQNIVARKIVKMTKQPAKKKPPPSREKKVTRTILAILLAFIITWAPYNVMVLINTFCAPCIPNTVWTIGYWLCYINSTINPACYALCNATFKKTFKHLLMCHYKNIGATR
Put plainly: Binding to muscarinic receptors, 3H-NMS displacement, heart. The arrangement: species or system rat (male Sprague-Dawley). The conditions noted are these: for pIC50: 0.3 nM 3H-NMS, 30° C., 45 min, pH 7.4, read-out: IC50 receptor binding test, Heart (H); for potency compared with compound D: Table I, receptor binding, same selectivity maintained. The protocol: (§1) The organs were donated by male Sprague-Dawley rats weighing 180-220 g After the heart and submandibular gland and cerebral cortex had been removed, all other steps were carried out in ice-cold Hepes HCl buffer (pH 7.4; 100 millimolar NaCl, 10 millimolar MgCl2). The whole heart was cut up with scissors. All the organs were then homogenised in a Potter apparatus.
(§2) For the binding test the homogenised organs were diluted as follows:
(§3) The homogenised organs were incubated at a given concentration of the radioligand and at a series of concentrations of the non-radioactive test substances in an Eppendorf centrifuge tube at 30° C. Incubation lasted 45 minutes. The radioligand used was 0.3 nanomolar ^3 H-N-methylscopolamine (^3 H-NMS). Incubation was ended by the addition of ice-cold buffer followed by vacuum filtration. The filters were rinsed with cold buffer and their radioactivity was determined. This represents the sum of specific and non-specific binding of ^3 H-NMS. The proportion of non-specific binding was defined as the radioactivity which was bound in the presence of 1 micromolar quinuclidinylbenzylate. Each measurement was taken four times. The IC50 values of the non-labelledtest substances were determined graphically. They represent that concentration of test substance at which the specific binding of ^3 H-NMS to the muscarinic receptors in the various organs was inhibited by 50%.

In data set [2] the target is muscarinic receptors (cerebral cortex). Put plainly: Binding to muscarinic receptors, 3H-NMS displacement, cerebral cortex. Details: species or system rat (male Sprague-Dawley). The note with it: for pIC50: 0.3 nM 3H-NMS, 30° C., 45 min, pH 7.4, read-out: IC50 receptor binding test, Cortex (C); for Selectivity factor [drawing 25]: head is a drawing, values equal IC50 C / IC50 H. The protocol:
as §1, §2, §3

Data set [3] deals with T2, muscarinic receptors (submandibular gland) (Rattus norvegicus, UniProt P08483).
T2 construct: After the heart and submandibular gland and cerebral cortex had been removed; from tissue; host or cells: homogenate of rat submandibular gland
Description: Binding to muscarinic receptors, 3H-NMS displacement, submandibular gland. The note with it: for pIC50: 0.3 nM 3H-NMS, 30° C., 45 min, pH 7.4, read-out: IC50 receptor binding test, Submandibular gland (SM); for Selectivity factor [drawing 24]: head is a drawing, values equal IC50 SM / IC50 H. Details: species or system rat (male Sprague-Dawley). The protocol: as §1, §2, §3

For the next data set, the target named is T3, M2 (Rattus norvegicus, UniProt P10980).
T3 construct: from tissue; host or cells: heart of the living rat (in vivo)
T3 sequence (P10980 1-466): T1 sequence (P10980 1-466)
Put plainly: M1/M2 selectivity in the rat: reduction of vagal bradycardia (M2). The format is in vivo, rat (male THOM). The conditions noted are these: iv, 5 min, i.v., 5 min before right vagus stimulation, read-out: -log ED50, Heart (vagal bradycardia, M2) (converted). Here is the method:
The method used was described by Hammer and Giachetti (Life Sciences 31, 2991-2998 (1982)). 5 minutes after the intravenous injection of increasing doses of the substance, either the right vagus was electrically stimulated (frequency: 25 Hz; pulse width: 2 ms; duration of stimulus: 30s; voltage: supramaximal) or 0.3 mg/kg of McN-A-343 were intravenously injected into male THOM rats. The bradycardia caused by vagus stimulation and the rise in blood pressure caused by McN-A-343 were determined. The dosage of the substances which reduced either the vagal bradycardia (M2) or the rise in blood pressure (M1) by 50% was determined graphically. For the results see Table II.

The target in the next data set is T4, M1 (Rattus norvegicus, UniProt P08482).
T4 construct: from tissue; host or cells: living rat (in vivo; sympathetic ganglia by own knowledge)
T4 sequence (P08482 1-460): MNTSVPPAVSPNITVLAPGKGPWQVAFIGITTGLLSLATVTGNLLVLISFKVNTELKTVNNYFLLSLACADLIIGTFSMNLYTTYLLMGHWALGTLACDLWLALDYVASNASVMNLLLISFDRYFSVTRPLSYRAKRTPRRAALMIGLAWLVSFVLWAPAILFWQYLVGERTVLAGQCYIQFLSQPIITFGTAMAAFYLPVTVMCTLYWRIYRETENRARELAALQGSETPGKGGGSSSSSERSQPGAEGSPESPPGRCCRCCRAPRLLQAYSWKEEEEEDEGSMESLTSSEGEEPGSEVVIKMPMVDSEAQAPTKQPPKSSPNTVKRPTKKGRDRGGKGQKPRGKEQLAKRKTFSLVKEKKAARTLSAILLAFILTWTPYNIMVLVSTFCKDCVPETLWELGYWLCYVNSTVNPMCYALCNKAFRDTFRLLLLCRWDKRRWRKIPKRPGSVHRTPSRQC
Put plainly: M1/M2 selectivity in the rat: reduction of McN-A-343 induced rise in blood pressure (M1). The format is in vivo, rat (male THOM). The note with it: iv, 5 min, i.v., 5 min before 0.3 mg/kg McN-A-343 i.v., read-out: -log ED50, Blood pressure (M1) (converted). The protocol: The dosage of the substances which reduced either the vagal bradycardia (M2) or the rise in blood pressure (M1) by 50% was determined graphically. For the results see Table II.

In the next data set the test system is secretion of saliva. Description: Salivation-inhibiting effect in the rat (pilocarpine). The data set is classed as in vivo, rat (male THOM). The conditions noted are these: iv, urethane anaesthesia, pilocarpine 2 mg/kg s.c., read-out: -log ED50, Salivation inhibition (converted). The protocol: The secretion of saliva was initiated by subcutaneous administration of 2 mg/kg of pilocarpine. The saliva was absorbed with blotting paper and the surface area covered was measured every 5 minutes by planimetry. The dosage of the substance which reduced the volume of saliva by 50% was determined graphically. For the results see Table II.

In data set [4] the test system is acetylcholine effect on heart rate. Description: Inhibition of the effect of acetylcholine on heart rate in guinea pigs. The data set is classed as in vivo. The note with it: Cavia porcellus, iv, 5 min; guinea pig, acetylcholine 10 microgram/kg i.v. and i.a., 5 min after substance; read-out: -log ED50, Heart (heart rate) (converted). Here is the method: (§4) 5 minutes after the administration of the test substance, 10 microgram/kg of acetylcholine were simultaneously injected intravenously and intraarterially into anaesthetised guinea pigs. The heart rate was recorded directly by extracorporeal derivation of the ECG, the expiration resistance according to Konzett-Robler and contraction of the exposed bladder. In order to determine the inhibition of the acetylcholine activity on the organs under investigation, dosage/activity curves were recorded and from them -log ED50 values were determined.

Data set [5] relates to acetylcholine effect on bronchi. Description: Inhibition of the effect of acetylcholine on the bronchi in guinea pigs. The note with it: Cavia porcellus, iv, 5 min; guinea pig, acetylcholine 10 microgram/kg i.v. and i.a., 5 min after substance; read-out: -log ED50, Bronchi (converted). The format is in vivo. Here is the method:
as §4

Data set [6] has as its system acetylcholine effect on bladder. Description: Inhibition of the effect of acetylcholine on the bladder in guinea pigs. The note with it: Cavia porcellus, iv, 5 min; guinea pig, acetylcholine 10 microgram/kg i.v. and i.a., 5 min after substance; read-out: -log ED50, Bladder (converted). The data set is classed as in vivo. The protocol: as §4
In a further data set the target is T5, histamine-H1 receptor (Rattus norvegicus, UniProt P31390).
T5 construct: whole rat brains were used without the cerebellum; from tissue; host or cells: membranes of whole rat brain without cerebellum
Description: Binding to the histamine-H1 receptor (3H-pyrilamine). The note with it: 2 nM 3H-pyrilamine, ambient temperature, 60 min, whole rat brain without cerebellum. Here is the method: In these tests, whole rat brains were used without the cerebellum. The tissue was homogenised in a phosphate buffer pH 7.5 according to Sorensen using the Ultra-Turrax. The homogenised material was then washed twice and centrifuged at 50,000×g. The pellet was taken up in a dilution, based on the starting tissue, of 1:100. […] The reactions were also ended by vacuum filtration and the radioactivity of the filters was measured. The non-specific binding was determined using mixtures which contained 10 micromolar triprolidine. The results were evaluated as in the studies of binding to the imipramine receptor.

The nature of data set [7]: Water solubility of the monohydrochloride. The format is physicochemical.

For orientation: pIC50 means the IC50 on a negative log10 scale, so that one unit is a factor of ten. A word on the ED50: it is the midpoint of the dose-response relation.

T2 sequence (P08483 whole entry): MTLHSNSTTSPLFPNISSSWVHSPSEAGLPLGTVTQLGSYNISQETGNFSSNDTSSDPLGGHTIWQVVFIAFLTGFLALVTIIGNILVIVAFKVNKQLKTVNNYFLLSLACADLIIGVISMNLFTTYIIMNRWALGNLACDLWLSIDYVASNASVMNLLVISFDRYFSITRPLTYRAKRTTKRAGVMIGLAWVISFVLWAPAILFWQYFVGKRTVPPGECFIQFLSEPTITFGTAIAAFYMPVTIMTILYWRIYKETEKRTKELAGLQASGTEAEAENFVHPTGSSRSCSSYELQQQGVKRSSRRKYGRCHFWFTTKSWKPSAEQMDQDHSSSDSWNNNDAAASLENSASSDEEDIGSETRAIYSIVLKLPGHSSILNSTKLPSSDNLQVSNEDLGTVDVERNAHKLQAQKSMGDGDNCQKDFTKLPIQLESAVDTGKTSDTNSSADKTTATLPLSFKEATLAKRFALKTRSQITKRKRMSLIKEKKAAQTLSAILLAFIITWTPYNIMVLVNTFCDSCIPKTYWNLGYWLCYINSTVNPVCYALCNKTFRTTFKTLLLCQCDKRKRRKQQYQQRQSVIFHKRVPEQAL
T5 sequence (P31390 whole entry): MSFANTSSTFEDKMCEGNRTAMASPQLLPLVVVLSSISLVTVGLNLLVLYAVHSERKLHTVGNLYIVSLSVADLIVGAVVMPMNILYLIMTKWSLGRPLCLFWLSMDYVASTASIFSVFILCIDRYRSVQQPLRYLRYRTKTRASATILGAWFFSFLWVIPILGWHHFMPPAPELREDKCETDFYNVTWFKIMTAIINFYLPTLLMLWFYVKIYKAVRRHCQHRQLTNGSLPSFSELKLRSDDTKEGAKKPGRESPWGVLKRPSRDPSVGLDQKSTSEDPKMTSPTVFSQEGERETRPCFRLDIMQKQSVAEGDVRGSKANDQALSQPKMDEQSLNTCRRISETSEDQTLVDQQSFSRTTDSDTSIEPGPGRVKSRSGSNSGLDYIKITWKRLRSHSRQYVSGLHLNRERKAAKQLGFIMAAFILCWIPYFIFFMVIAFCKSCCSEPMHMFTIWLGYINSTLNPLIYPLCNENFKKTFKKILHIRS

Regarding `CCN(CC)CC1CCCCN1CCCCN1c2ccccc2C(=O)Nc2cccnc21` (stereo not shown) [B, 11-[4-[2-[(diethylamino)methyl]-1-piperidinyl]butyl]-5,11-dihydro-6H-pyrido[2,3-b][1,4]benzodiazepin-6-one], the pIC50 in [1] is 8.70; in [2], 7.70; in data set [3], 7.10; on histamine-H1 receptor it was 5.05. Moreover, the “potency compared with compound D” value in data set [1] is reported as “considerably higher potency”. For the same compound, the “Selectivity factor [drawing 25]” value in [2] was determined as 10. Besides, the “Selectivity factor [drawing 24]” value in data set [3] turned out to be 40. For the same compound, the ED50 is 0.0398 µmol/kg on M2; 0.676 µmol/kg on M1; 3.16 µmol/kg in the data set with secretion of saliva; 0.468 µmol/kg in data set [4]; 0.646 µmol/kg in [5]; above 10 µmol/kg in data set [6].
Turning to `Cl.O=C1Nc2ccccc2N(CCCCCCN2CCCCCC2)c2ccccc21` [Example 16, 5,10-Dihydro-5-[6-(hexahydro-1H-1-azepinyl)hexyl]-11H-dibenzo[b,e][1,4]diazepin-11-one hydrochloride], the “water solubility (monohydrochloride)” value in data set [7] is recorded as “sparingly soluble in water”.
For the compound `CCN(CC)CC1CCCCN1CC(=O)N1c2ccccc2C(=O)Nc2cccnc21` (stereo not shown) [D, 11-[[2-[(diethylamino)methyl]-1-piperidinyl]acetyl]-5,11-dihydro-6H-pyrido[2,3-b][1,4]benzodiazepin-6-one, reference compound], the ED50 in the data set on secretion of saliva is 10 µmol/kg.
As for `CN1[C@@H]2CC[C@H]1C[C@@H](OC(=O)C(CO)c1ccccc1)C2` (stereo partly shown) [F, atropine, reference compound], the ED50 in data set [4] is 0.02 µmol/kg.
Consider `O=C1Nc2cccnc2N(CCCCCCN2CCCCC2)c2ccccc21` [A, 5,11-dihydro-11-[6-(1-piperidinyl)hexyl]-6H-pyrido[2,3-b][1,4]benzodiazepin-6-one], for which the pIC50 in [1] was 9.22; in data set [2], 8.40; in [3], 8.00. Moreover, the “potency compared with compound D” value in data set [1] is on record as “considerably higher potency”. The “Selectivity factor [drawing 25]” value in data set [2] was found to be 6.7. Besides, the “Selectivity factor [drawing 24]” value in [3] is 16.7. The ED50 was 0.011 µmol/kg on M2; 0.295 µmol/kg on M1; 0.447 µmol/kg in the data set with secretion of saliva; 0.0661 µmol/kg in [4]; 0.0851 µmol/kg in data set [5]; 1.29 µmol/kg in data set [6].
Take `CCN(CC)CC1CCCCN1CC#CCN1c2ccccc2C(=O)Nc2cccnc21` (stereo not shown) [C, 11-[4-[2-[(diethylamino)methyl]-1-piperidinyl]but-2-ynyl]-5,11-dihydro-6H-pyrido[2,3-b][1,4]benzodiazepin-6-one]: the pIC50 is 7.74 in [1], 6.70 in [2] and 6.15 in data set [3]. For the same compound, in [1], the “potency compared with compound D” value is recorded as “considerably higher potency”. Moreover, the “Selectivity factor [drawing 25]” value in [2] turned out to be 11.1. Moreover, in [3], the “Selectivity factor [drawing 24]” value is recorded as 38.9. The ED50 on M2 was 0.0302 µmol/kg; on M1 it was 1.1 µmol/kg; in the data set with secretion of saliva, 7.59 µmol/kg; in data set [4] it was 0.245 µmol/kg; in [5] it was 1.58 µmol/kg; in data set [6], above 2.29 µmol/kg.
